How the values were obtained:
[1] = biological target: T1, wild-type androgen receptor (AR) (Homo sapiens, UniProt P10275); assay: AR binding inhibitory test (wild-type); settings: 100 nM compound; 3 nM radiolabeled mibolerone; 4° C., 3 hr; dextran/charcoal B/F separation; read-out: Inhibitory rate (%) at 100 nM
T1 sequence (P10275 1-920): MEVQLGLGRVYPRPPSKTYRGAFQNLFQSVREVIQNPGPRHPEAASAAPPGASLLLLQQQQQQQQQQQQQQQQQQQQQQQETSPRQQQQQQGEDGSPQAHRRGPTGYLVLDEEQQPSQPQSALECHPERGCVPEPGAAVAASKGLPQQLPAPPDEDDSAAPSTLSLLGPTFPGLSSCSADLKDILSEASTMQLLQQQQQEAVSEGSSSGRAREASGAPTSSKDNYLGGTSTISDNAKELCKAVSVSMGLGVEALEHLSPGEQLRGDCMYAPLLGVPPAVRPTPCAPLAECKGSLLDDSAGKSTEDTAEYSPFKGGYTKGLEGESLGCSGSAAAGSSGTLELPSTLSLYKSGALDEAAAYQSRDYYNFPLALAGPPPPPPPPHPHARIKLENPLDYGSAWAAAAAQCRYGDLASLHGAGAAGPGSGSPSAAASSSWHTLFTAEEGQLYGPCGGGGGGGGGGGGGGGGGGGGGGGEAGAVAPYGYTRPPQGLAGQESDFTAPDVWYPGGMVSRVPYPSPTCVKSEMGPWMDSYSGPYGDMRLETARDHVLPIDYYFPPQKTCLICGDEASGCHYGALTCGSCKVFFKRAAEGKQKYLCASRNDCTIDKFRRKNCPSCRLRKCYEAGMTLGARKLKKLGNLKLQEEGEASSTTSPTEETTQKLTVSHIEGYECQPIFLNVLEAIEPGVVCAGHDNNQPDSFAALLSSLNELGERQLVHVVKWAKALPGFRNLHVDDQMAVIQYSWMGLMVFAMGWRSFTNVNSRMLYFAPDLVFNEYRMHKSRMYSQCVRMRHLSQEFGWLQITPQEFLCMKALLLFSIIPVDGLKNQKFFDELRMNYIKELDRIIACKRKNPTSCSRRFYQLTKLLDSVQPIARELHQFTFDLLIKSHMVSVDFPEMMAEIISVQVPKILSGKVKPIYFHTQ
Protocol: To a solution containing a wild-type androgen receptor (AR) was added 3 nM radiolabeled mibolerone and 100 nM compound. After the solution was incubated at 4° C. for 3 hr, B (Bound)/F (Free) separation was performed by the dextran/charcoal method. The label count of B was measured, and the inhibitory rate of the compound was calculated.

AR = biological target: T2, AR (Homo sapiens, UniProt P10275); assay: Reporter assay system using Cos7 cell (AR gene + MMTV androgen responsive promoter-luciferase); assay type: cell-based; settings: 100 nM compound, 24 hr; Cos-7 co-transfected with AR and MMTV-luciferase vectors; luciferase activity induced by 1 μM 5α-dihydrotestosterone taken as 100
T2 construct: expressed in transfected cells; host or cells: Cos-7
T2 sequence (P10275 1-920): T1 sequence (P10275 1-920)
Protocol: Cos-7(5,000,000 cells) were sown in a flask (150 cm^2), and cultured in a culture medium (DMEM medium containing 10% Dextran Charcoal (DCC)-Fetal Bovine Serum (FBS) and 2 mM glutamine) for 24 hr. A vector DNA containing AR gene, and a vector DNA prepared by binging luciferase gene at the downstream of an androgen responsive promoter derived from MMTV (Mouse Mammary Tumor Virus) were co-transfected by the liposome method. After culture for 4 hr, the cells were harvested, 10,000 cells were plated on a 96 well plate and cultured for 2 hr, after which 1 μM of 5α-dihydrotestosterone or 100 nM of a compound was added thereto. After culture for 24 hr, luciferase activity was determined. The induction rate by the compound was determined with the luciferase activity induced by addition of 1 μM of 5α-dihydrotestosterone as 100.

SMILES | inhibition at 0.1 µM [1] [%] | Induction rate (%) at 100 nM (AR) [%]
C[C@@H]1N(c2ccc(C#N)c(F)c2)CC[C@]1(C)O [Example 1, 2-fluoro-4-[(2S,3S)-3-hydroxy-2,3-dimethylpyrrolidin-1-yl]benzonitrile] | 95 | 65
CC[C@]1(O)CCN(c2cc(F)c(C#N)c(F)c2)[C@H]1C [Example 7, 4-[(2S,3S)-3-ethyl-3-hydroxy-2-methylpyrrolidin-1-yl]-2,6-difluorobenzonitrile] | 98 | 107
C[C@@H]1N(c2ccc(C#N)c(Cl)c2)CC[C@@]1(O)C(F)(F)F [Example 18, 2-chloro-4-[(2S,3S)-3-hydroxy-2-methyl-3-(trifluoromethyl)pyrrolidin-1-yl]benzonitrile] | 100 | 89
CC(C)[C@@H]1N(c2cc(F)c(C#N)c(F)c2)CC[C@]1(C)O [Example 20, 2,6-difluoro-4-[(2S,3S)-3-hydroxy-2-isopropyl-3-methylpyrrolidin-1-yl]benzonitrile] | 98 | 59
C[C@@H]1N(c2ccc(C#N)c(F)c2)CC[C@@]1(O)C1CC1 [Example 32, 4-[(2S,3R)-3-cyclopropyl-3-hydroxy-2-methylpyrrolidin-1-yl]-2-fluorobenzonitrile] | 98 | 77
C[C@@H]1C[C@](C)(O)[C@H](C)N1c1ccc(C#N)c(Cl)c1 [Example 60, 2-chloro-4-[(2S,3S,5R)-3-hydroxy-2,3,5-trimethylpyrrolidin-1-yl]benzonitrile] | 92 | 37

— patent US8013008B2, “Cyclic amine compound” (Takeda Pharmaceutical Company Limited, priority 2006, dated 2011)
